Experimental findings from patent US11667649B2, “Heteroaromatic macrocyclic ether chemotherapeutic agents” (Nuvalent, Inc., priority 2020, dated 2023) are described below.

Structures are written as SMILES.

The test has as its system TPM3-NTRK1-wt IC50 / primary target (e.g. CD74-ROS1-wt) IC50, Ba/F3 cells. Nature of the test: Cell assay TRKA selectivity (TRKA potency divided by primary target potency). The settings on record: for TPM3-NTRK1-wt/CD74-ROS1-G2032R: TRKA selectivity ratio: TPM3-NTRK1-wt IC50 / CD74-ROS1-G2032R IC50, Ba/F3 cells; for TPM3-NTRK1-wt/CD74-ROS1-wt: TRKA selectivity ratio: TPM3-NTRK1-wt IC50 / CD74-ROS1-wt IC50, Ba/F3 cells; for TPM3-NTRK1-wt/EML4-ALK-L1196M-G1202R: TRKA selectivity ratio: TPM3-NTRK1-wt IC50 / EML4-ALK-L1196M-G1202R IC50, Ba/F3 cells; for TPM3-NTRK1-wt/EML4-ALK-wt: TRKA selectivity ratio: TPM3-NTRK1-wt IC50 / EML4-ALK-wt IC50, Ba/F3 cells. The test is classed as cell-based. In a few lines: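 IL-3-independent Ba/F3 lines stably expressing TPM3-TRKA or the primary fusion (e.g. CD74-ROS1 wt) were exposed to 3-fold compound dilutions for 72 h. Viability was read by CellTiter-Glo luminescence, with IC50 from four-parameter logistic fit. Selectivity is TPM3-NTRK1 IC50 divided by primary-target IC50, binned A (>30-fold) to D (<1).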

With `CCc1nn(C)c2c1-c1cnc(N)c(c1)OCc1cc(F)ccc1-n1nc(C)cc1C2` [Example 55, 3-ethyl-16-fluoro-5,10-dimethyl-20-oxa-4,5,11,12,23-pentaazapentacyclo[19.3.1.0^2,^6.0^8,^12.0^13,^18]pentacosa-1(24),2(6),3,8,10,13,15,17,21(25),22-decaen-22-amine], the TPM3-NTRK1-wt/CD74-ROS1-G2032R entry is reported as “A (bin A for very high selectivity, ratio>30-fold)”; the TPM3-NTRK1-wt/CD74-ROS1-wt entry was “A (bin A for very high selectivity, ratio>30-fold)”; the TPM3-NTRK1-wt/EML4-ALK-L1196M-G1202R result is “C (bin C for moderate selectivity, ratio≥1)”; the TPM3-NTRK1-wt/EML4-ALK-wt entry is given as “A (bin A for very high selectivity, ratio>30-fold)”.
On to `Cc1cn2c(n1)-c1ccc(F)cc1[C@@H](C)Oc1cc(cnc1N)-c1c(c(C)nn1CC1CC1)C2` [Example 56, (19R)-3-(cyclopropylmethyl)-16-fluoro-5,10,19-trimethyl-20-oxa-3,4,8,11,23-pentaazapentacyclo[19.3.1.0^2,^6.0^8,^12.0^13,^18]pentacosa-1(24),2(6),4,9,11,13,15,17,21(25),22-decaen-22-amine], for which the TPM3-NTRK1-wt/CD74-ROS1-G2032R result is listed as “D (bin D for low selectivity, ratio<1)”; the TPM3-NTRK1-wt/CD74-ROS1-wt result is reported as “D (bin D for low selectivity, ratio<1)”; the TPM3-NTRK1-wt/EML4-ALK-L1196M-G1202R entry is given as “D (bin D for low selectivity, ratio<1)”; the TPM3-NTRK1-wt/EML4-ALK-wt result is “D (bin D for low selectivity, ratio<1)”.
For `C[C@H]1Oc2cc(cnc2N)-c2c(C#N)cnn2Cc2ccnn2-c2ccc(F)cc21` [Example 58, (19R)-22-amino-16-fluoro-19-methyl-20-oxa-4,6,11,12,23-pentaazapentacyclo[19.3.1.0^2,^6.0^8,^12.0^13,^18]pentacosa-1(24),2,4,8,10,13,15,17,21(25),22-decaene-3-carbonitrile], the TPM3-NTRK1-wt/CD74-ROS1-G2032R entry was “A (bin A for very high selectivity, ratio>30-fold)”; the TPM3-NTRK1-wt/CD74-ROS1-wt result is listed as “A (bin A for very high selectivity, ratio>30-fold)”; the TPM3-NTRK1-wt/EML4-ALK-L1196M-G1202R result is “B (bin B for high selectivity, ratio>10-fold)”; the TPM3-NTRK1-wt/EML4-ALK-wt result is reported as “A (bin A for very high selectivity, ratio>30-fold)”.
Take `CC1Oc2cc(cnc2N)-c2c(nn(C)c2C#N)Cc2cnccc2-c2ccc(F)cc21` (stereo not drawn) [Example 59, 23-amino-17-fluoro-4,20-dimethyl-21-oxa-4,5,10,24-tetraazapentacyclo[20.3.1.0^2,^6.0^8,^13.0^14,^19]hexacosa-1(25),2,5,8(13),9,11,14,16,18,22(26),23-undecaene-3-carbonitrile]: the TPM3-NTRK1-wt/CD74-ROS1-G2032R result is reported as “C (bin C for moderate selectivity, ratio≥1)”; the TPM3-NTRK1-wt/CD74-ROS1-wt result is “A (bin A for very high selectivity, ratio>30-fold)”; the TPM3-NTRK1-wt/EML4-ALK-L1196M-G1202R result is listed as “D (bin D for low selectivity, ratio<1)”.
On to `Cc1cc2n(n1)-c1ccc(F)cc1[C@@H](C)Oc1cc(cnc1N)-c1c(C#N)ncn1C2` [Example 61, (19R)-22-amino-16-fluoro-10,19-dimethyl-20-oxa-4,6,11,12,23-pentaazapentacyclo[19.3.1.0^2,^6.0^8,^12.0^13,^18]pentacosa-1(24),2,4,8,10,13,15,17,21(25),22-decaene-3-carbonitrile], for which the TPM3-NTRK1-wt/CD74-ROS1-G2032R result was “A (bin A for very high selectivity, ratio>30-fold)”; the TPM3-NTRK1-wt/CD74-ROS1-wt entry is “A (bin A for very high selectivity, ratio>30-fold)”; the TPM3-NTRK1-wt/EML4-ALK-L1196M-G1202R result was “B (bin B for high selectivity, ratio>10-fold)”; the TPM3-NTRK1-wt/EML4-ALK-wt result was “A (bin A for very high selectivity, ratio>30-fold)”.
For `C[C@H]1Oc2cc(cnc2N)-c2c(C#N)cnn2Cc2ccnn2-c2ccc(F)cc21` [Example 62, (19R)-22-amino-16-fluoro-19-methyl-20-oxa-5,6,11,12,23-pentaazapentacyclo[19.3.1.0^2,^6.0^8,^12.0^13,^18]pentacosa-1(24),2,4,8,10,13,15,17,21(25),22-decaene-3-carbonitrile], the TPM3-NTRK1-wt/CD74-ROS1-G2032R result was “B (bin B for high selectivity, ratio>10-fold)”; the TPM3-NTRK1-wt/CD74-ROS1-wt result was “A (bin A for very high selectivity, ratio>30-fold)”; the TPM3-NTRK1-wt/EML4-ALK-L1196M-G1202R result is recorded as “C (bin C for moderate selectivity, ratio≥1)”; the TPM3-NTRK1-wt/EML4-ALK-wt result is “A (bin A for very high selectivity, ratio>30-fold)”.
Take `C[C@H]1Oc2cc(cnc2N)-c2c(C#N)ncn2Cc2cc(F)cnc2-c2ccc(F)cc21` [Example 63, (20R)-23-amino-10,17-difluoro-20-methyl-21-oxa-4,6,12,24-tetraazapentacyclo[20.3.1.0^2,^6.0^8,^13.0^14,^19]hexacosa-1(25),2,4,8,10,12,14(19),15,17,22(26),23-undecaene-3-carbonitrile]: the TPM3-NTRK1-wt/CD74-ROS1-G2032R result is listed as “A (bin A for very high selectivity, ratio>30-fold)”; the TPM3-NTRK1-wt/CD74-ROS1-wt result was “A (bin A for very high selectivity, ratio>30-fold)”; the TPM3-NTRK1-wt/EML4-ALK-L1196M-G1202R entry is reported as “B (bin B for high selectivity, ratio>10-fold)”; the TPM3-NTRK1-wt/EML4-ALK-wt result was “A (bin A for very high selectivity, ratio>30-fold)”.
Regarding `C[C@H]1Oc2cc(cnc2N)-c2c(C#N)ncn2Cc2scnc2-c2ccc(F)cc21` [Example 64, (19R)-22-amino-16-fluoro-19-methyl-20-oxa-9-thia-4,6,11,23-tetraazapentacyclo[19.3.1.0^2,^6.0^8,^12.0^13,^18]pentacosa-1(24),2,4,8(12),10,13(18),14,16,21(25),22-decaene-3-carbonitrile], the TPM3-NTRK1-wt/CD74-ROS1-G2032R result is “A (bin A for very high selectivity, ratio>30-fold)”; the TPM3-NTRK1-wt/CD74-ROS1-wt entry is recorded as “A (bin A for very high selectivity, ratio>30-fold)”; the TPM3-NTRK1-wt/EML4-ALK-L1196M-G1202R result is listed as “B (bin B for high selectivity, ratio>10-fold)”; the TPM3-NTRK1-wt/EML4-ALK-wt result is “A (bin A for very high selectivity, ratio>30-fold)”.
On to `Cc1nc2c(s1)Cn1cnc(C#N)c1-c1cnc(N)c(c1)O[C@H](C)c1cc(F)ccc1-2` [Example 65, (19R)-22-amino-16-fluoro-10,19-dimethyl-20-oxa-9-thia-4,6,11,23-tetraazapentacyclo[19.3.1.0^2,^6.0^8,^12.0^13,^18]pentacosa-1(24),2,4,8(12),10,13(18),14,16,21(25),22-decaene-3-carbonitrile], for which the TPM3-NTRK1-wt/CD74-ROS1-G2032R result was “A (bin A for very high selectivity, ratio>30-fold)”; the TPM3-NTRK1-wt/CD74-ROS1-wt entry is listed as “A (bin A for very high selectivity, ratio>30-fold)”; the TPM3-NTRK1-wt/EML4-ALK-L1196M-G1202R entry is on record as “B (bin B for high selectivity, ratio>10-fold)”; the TPM3-NTRK1-wt/EML4-ALK-wt entry is on record as “A (bin A for very high selectivity, ratio>30-fold)”.
On to `Cc1nc2c(s1)Cn1ncc(C#N)c1-c1cnc(N)c(c1)O[C@H](C)c1cc(F)ccc1-2` [Example 67, (19R)-22-amino-16-fluoro-10,19-dimethyl-20-oxa-9-thia-5,6,11,23-tetraazapentacyclo[19.3.1.0^2,^6.0^8,^12.0^13,^18]pentacosa-1(24),2,4,8(12),10,13,15,17,21(25),22-decaene-3-carbonitrile], for which the TPM3-NTRK1-wt/CD74-ROS1-G2032R result is given as “A (bin A for very high selectivity, ratio>30-fold)”; the TPM3-NTRK1-wt/CD74-ROS1-wt result is on record as “A (bin A for very high selectivity, ratio>30-fold)”; the TPM3-NTRK1-wt/EML4-ALK-L1196M-G1202R entry was “C (bin C for moderate selectivity, ratio≥1)”; the TPM3-NTRK1-wt/EML4-ALK-wt result is “A (bin A for very high selectivity, ratio>30-fold)”.
